Data: patent US20110034384A1, “COMBINATION VEGFR2 THERAPY WITH mTOR INHIBITORS” (Bristol-Myers Squibb Company, priority 2007, published 2011)
“Also recorded” adds a separate entry of the source.

B1: Comp-I: the VEGFR2 specific inhibitor represented by SEQ ID NO: 4; a VEGFR-2 binding 10Fn3 fibronectin based scaffold polypeptide (protein)
chain: GEVVAATPTSLLISWRHPHFPTRYYRITYGETGGNSPVQEFTVPLQPPTATISGLKPGVDYTITVYAVTDGRNGRLLSIPISINYRTEIDKPCQ

Experiments:
Type in all cases: in vivo, nude mice
Colo205 tumor [1] = assay: Colo205 xenograft: Comp-I vs. Bevacizumab, Temsirolimus added at Day 9 (Example 3); details: for Day 14 (TV, mm^3) (Mean) / Day 14 (TV, mm^3) Average ± STDErr: Temsirolimus 10 mg/kg BIW added on Day 9 to Bevacizumab 10 mg/kg BIW, Comp-I 80 mg/kg TIW or vehicle (n = 4); for Day 1 (TV, mm^3) (Mean) / Day 1 (TV, mm^3) Average ± STDErr: i.p.; for Day 1 (TV, mm^3) (Mean) / Day 1 (TV, mm^3) Average ± STDErr / Day 8 (TV, mm^3) (Mean) / Day 8 (TV, mm^3) Average ± STDErr / Percentage of tumor growth inhibition: Bevacizumab 10 mg/kg BIW, Comp-I 80 mg/kg TIW; for Day 8 (TV, mm^3) (Mean) / Day 8 (TV, mm^3) Average ± STDErr: Day 8 (before Temsirolimus)
Method: (§1) Tumors were measured with calipers twice a week. Tumor volumes (mm^3) were calculated by the formula [π/6 (L×W^2)], where L represents the largest tumor diameter (mm) and W represents the smallest tumor diameter (mm). Tumor measurements were noted as absolute values. Animal body weights were determined weekly during the course of the experiment. Tumor Growth Inhibition (TGI) was calculated as the percent tumor growth of treated (T) groups from control group (vehicle, C). Tumor growth was calculated by subtracting initial tumor volume (at day 0) from the final tumor volume at the end of the experiment. TGI=(1−[T-T0]/[C-C0])*100.
Human Colo205 cells were injected subcutaneously into the flanks of nude mice. Mice were randomized and treatments initiated when tumors reached an average size of 411 mm^3. Comp-I and Bevacizumab were administered intraperitoneally to Colo-205 tumor bearing-mice in doses and schedules as indicated in Table 5. Temsirolimus (10 mg/kg, BIW) was added to Comp-I and Bevacizumab treatments on Day 9. Half the mice (n=4) in the vehicle group were initiated on torisel the same day and the other half (n=4) remained under vehicle treatment Both anti-angiogenic treatments reduced […] to similar levels by Day 14 (FIG. 5).

Colo205 tumor [2] = assay: Colo205 xenograft: Comp-I, Temsirolimus and their combination (Example 1); details: for Colo205 tumor growth inhibition (in words): 21 days under treatment, FIG. 1, Table 2; for Tumor Volume Average: i.p., Comp-I 60 mg/kg TIW, Temsirolimus 20 mg/kg BIW, Combo 60/20 mg/kg TIW/BIW
Method: Human Colo205 cells were injected subcutaneously into the flanks of nude mice. Mice were randomized and treatments initiated when tumors reached an average size of 235 mm^3. Optimal doses of Comp-I (the VEGFR2 specific inhibitor represented by SEQ ID NO: 4) and Temsilorimus were administered intraperitoneally to Colo-205 tumor bearing-mice in doses and schedules as indicated in Table 1. Tumor growth was evaluated for 21 days under treatment (FIG. 1). Mice were taken off treatment after day 21 until day 57, with a continuous assessment of tumor growth (FIG. 2). Control was euthanized on Day 41. [table] Tumors were measured with calipers twice a week. Tumor volumes (mm^3) were calculated by the formula [π/6 (L×W^2)], where L represents the largest tumor diameter (mm) and W represents the smallest tumor diameter (mm). Tumor measurements were noted as absolute values. Animal body weights were determined weekly during the course of the experiment. Tumor Growth Inhibition (TGI) was calculated as the percent tumor growth of treated (T) groups from control group (vehicle, C). Tumor growth was calculated by subtracting initial tumor volume (at day 0) from the final tumor volume at the end of the experiment. TGI=(1−[T-T0]/[C-C0])*100.

Colo205 tumor [3] = assay: Colo205 xenograft: Comp-I vs. Bevacizumab, Temsirolimus added at Day 17 (Example 2); details: for Day 22 (TV, mm3) (Mean) / Day 22 (TV, mm3) Average ± STDErr: Temsirolimus 10 mg/kg BIW added on Day 17 to Bevacizumab 10 mg/kg BIW, Comp-I 80 mg/kg TIW or vehicle (n = 4); for Day 1 (TV, mm3) (Mean) / Day 1 (TV, mm3) Average ± STDErr: i.p.; for Day 1 (TV, mm3) (Mean) / Day 1 (TV, mm3) Average ± STDErr / Day 19 (TV, mm3) (Mean) / Day 19 (TV, mm3) Average ± STDErr / Percentage of tumor growth inhibition: Bevacizumab 10 mg/kg BIW, Comp-I 80 mg/kg TIW; for Day 19 (TV, mm3) (Mean) / Day 19 (TV, mm3) Average ± STDErr: Temsirolimus 10 mg/kg BIW added on Day 17; for Day 19 (TV, mm3) (Mean) / Day 19 (TV, mm3) Average ± STDErr / Percentage of tumor growth inhibition: Day 19; for Percentage of tumor growth inhibition: Temsirolimus added on Day 17
Method: as §1
Human Colo205 cells were injected subcutaneously into the flanks of nude mice. Mice were randomized and treatments initiated when tumors reached an average size of 167 mm^3. Comp-I and Bevacizumab were administered intraperitoneally to Colo-205 tumor bearing-mice in doses and schedules as indicated in Table 4. Temsirolimus treatment (10 mg/kg, BIW) was initiated on Day 17 added to Comp-I and Bevacizumab treatments on Day 17. Half the mice (n=4) in the vehicle group were initiated on torisel the same day and the other half (n=4) remained under vehicle treatment. Both anti-angiogenic treatments reduced […] to similar levels by Day 22 (FIG. 4). Percentage of tumor growth inhibition was determined as follows: Day 19/Comp-I (89%), Day 19/Bevacizumab (87%).

HT1080 tumor = assay: HT1080 xenograft: Comp-I vs. Bevacizumab, Temsirolimus added at Day 23 (Example 4); details: for Day 1 (TV, mm^3) (Mean) / Day 1 (TV, mm^3) Average ± STDErr / Day 23 (TV, mm^3) (Mean) / Day 23 (TV, mm^3) Average ± STDErr: i.p.
Method: Human HT1080 cells were injected subcutaneously into the flanks of nude mice. Mice were randomized and treatments initiated when tumors reached an average size of 201 mm^3. Comp-I and Bevacizumab were administered intraperitoneally to HT1080 tumor bearing-mice in doses and schedules as indicated in Table 6. Temsirolimus (10 mg/kg, BIW) was added to Comp-I and Bevacizumab treatments on Day 23. Both anti-angiogenic treatments reduced […] as measured on Day 27 (FIG. 6).

[4] = Bevacizumab 5 mg/kg BIW, Comp-I 100 mg/kg TIW
[5] = QW groups: Bevacizumab 5 mg/kg QW, Comp-I 100 mg/kg QW
[6] = Day 11, Temsirolimus 10 mg/kg BIW added on Day 9

Molecule	Day 14 (TV, mm^3) (Mean) (Colo205 tumor [1]) [mm^3]	Day 14 (TV, mm^3) Average ± STDErr (Colo205 tumor [1]) [mm^3]	Colo205 tumor growth inhibition (in words) (Colo205 tumor [2])	Tumor Volume Average (Colo205 tumor [2]; Day 1) [mm^3]	Tumor Volume Average (Colo205 tumor [2]; Day 5) [mm^3]	Tumor Volume Average (Colo205 tumor [2]; Day 8) [mm^3]	Tumor Volume Average (Colo205 tumor [2]; Day 11) [mm^3]	Tumor Volume Average (Colo205 tumor [2]; Day 14) [mm^3]	Tumor Volume Average (Colo205 tumor [2]; Day 19) [mm^3]	Tumor Volume Average (Colo205 tumor [2]; Day 21) [mm^3]	Day 22 (TV, mm3) (Mean) (Colo205 tumor [3]) [mm3]	Day 22 (TV, mm3) Average ± STDErr (Colo205 tumor [3]) [mm3]	Day 1 (TV, mm^3) (Mean) (HT1080 tumor; [4]) [mm^3]	Day 1 (TV, mm^3) Average ± STDErr (HT1080 tumor; [4]) [mm^3]	Day 1 (TV, mm^3) (Mean) (HT1080 tumor; [5]) [mm^3]	Day 1 (TV, mm^3) Average ± STDErr (HT1080 tumor; [5]) [mm^3]	Day 23 (TV, mm^3) (Mean) (HT1080 tumor; [4]) [mm^3]	Day 23 (TV, mm^3) Average ± STDErr (HT1080 tumor; [4]) [mm^3]	Day 23 (TV, mm^3) (Mean) (HT1080 tumor; [5]) [mm^3]	Day 23 (TV, mm^3) Average ± STDErr (HT1080 tumor; [5]) [mm^3]	other results
CO[C@H]1C[C@@H]2CC[C@@H](C)[C@@](O)(O2)C(=O)C(=O)N2CCCC[C@H]2C(=O)O[C@H]([C@H](C)C[C@@H]2CC[C@@H](OC(=O)C(C)(CO)CO)[C@H](OC)C2)CC(=O)[C@H](C)/C=C(\C)[C@@H](O)[C@@H](OC)C(=O)[C@H](C)C[C@H](C)/C=C/C=C/C=C/1C [Temsirolimus, temsirolimus]	821.1	849.6 ± 106.6	equally inhibited	237.19	287.19	313.73	354.14	378.44	395.95	422.42	667.5	612.3 ± 99.5									
Bevacizumab: anti-angiogenic treatment; Bevacizumab-mediated VEGF inhibition	458.9	455.1 ± 36.2									250.7	246.5 ± 21.2	191.9	201.6 ± 19.1	195.8	202.0 ± 18.8	517.4	486.9 ± 34.6	598.3	619.3 ± 69.6	Day 1 (TV, mm^3) (Mean) (Colo205 tumor [1]): (398.6) mm^3; Day 1 (TV, mm^3) Average ± STDErr (Colo205 tumor [1]): 413.0 ± 32.9 mm^3; Day 8 (TV, mm^3) (Mean) (Colo205 tumor [1]): (511.8) mm^3; Day 8 (TV, mm^3) Average ± STDErr (Colo205 tumor [1]): 519.0 ± 50.0 mm^3; Percentage of tumor growth inhibition (Colo205 tumor [1]; Day 8): 38.99%; Percentage of tumor growth inhibition (Colo205 tumor [1]; [6]): 82.2%; Day 1 (TV, mm3) (Mean) (Colo205 tumor [3]): (166.7) mm3; Day 1 (TV, mm3) Average ± STDErr (Colo205 tumor [3]): 167.7 ± 7.7 mm3; Day 19 (TV, mm3) (Mean) (Colo205 tumor [3]): (299.2) mm3; Day 19 (TV, mm3) Average ± STDErr (Colo205 tumor [3]): 290.3 ± 24.6 mm3; Percentage of tumor growth inhibition (Colo205 tumor [3]): 87%
B1	449.2	444.6 ± 30.2	inhibits Colo205 tumor growth to the same extent as the mTOR inhibitor Temsirolimus; also recorded: equally inhibited	235.25	301.95	325.42	369.21	403.32	426.71	455.84	247.1	239.4 ± 18.3	183.4	205.1 ± 20.9	207.0	203.4 ± 18.7	460.5	432.8 ± 23.6	492.9	533.4 ± 47.9	sensitivity of tumor growth, Comp-I vs. Bevacizumab (in words) (HT1080 tumor; HT1080 model): tumor growth is more sensitive to Comp-1-mediated VEGFR-2 inhibition than to Bevacizumab-mediated VEGF inhibition; Day 1 (TV, mm^3) (Mean) (Colo205 tumor [1]): (417.2) mm^3; Day 1 (TV, mm^3) Average ± STDErr (Colo205 tumor [1]): 413.5 ± 28.7 mm^3; Day 8 (TV, mm^3) (Mean) (Colo205 tumor [1]): (505.8) mm^3; Day 8 (TV, mm^3) Average ± STDErr (Colo205 tumor [1]): 502.5 ± 33.6 mm^3; Percentage of tumor growth inhibition (Colo205 tumor [1]; Day 8): 53.03%; Percentage of tumor growth inhibition (Colo205 tumor [1]; [6]): 91.5%; Day 1 (TV, mm3) (Mean) (Colo205 tumor [3]): (166.2) mm3; Day 1 (TV, mm3) Average ± STDErr (Colo205 tumor [3]): 167.4 ± 8.1 mm3; Day 19 (TV, mm3) (Mean) (Colo205 tumor [3]): (293.1) mm3; Day 19 (TV, mm3) Average ± STDErr (Colo205 tumor [3]): 289.4 ± 21.5 mm3; Percentage of tumor growth inhibition (Colo205 tumor [3]): 89%
